Consider one compound from patent US20230277669A1, “USES OF UROLITHINS” (Amazentis SA, priority 2022, published 2023).

In experiment [1] the test system is CD3^+ T cells. Put plainly: qPCR analysis of in vitro activated CD3+ cells. It counts as cell-based. The protocol: (FIG. 4A) Scheme of CD3+ T-cell activation and analysis for various timepoints in order to investigate mitophagy induction in vitro. (FIG. 4B) Analysis of mitochondrial membrane potential within CD8+ T cells, with TMRM^lo representing cells with low mitochondrial membrane potential. Analysis was performed six hours after stimulation with aCD/aCD28 stimulation beads at the presence of the indicated treatments. N=4 per group, *p < 0.05 by Mann Whitney U test. One of two independent experiments are shown. (FIG. 4C) Representative flow histogram and quantification of lysosome formation in CD8+ cells six hours after in vitro stimulation. MFI shown relative to DMSO controls, n=4. Data are normalised mean ± SD, statistical analysis by two-sided t-test. One out of two independent experiments are shown. (FIG. 4D) Mitotracker Red staining of in vitro stimulated CD8+ cells after 24 hours of Urolithin A (UA25 n=6; UA50 n=6) or vehicle control treatment (DMSO: n=4). […] (FIG. 4H) CD8+ cells from Pink1^-/- mice display deficient mitophagy upon UA treatment in vitro: Lysosome formation in CD8+ of Pink1^-/- mice as assessed by Lysotracker staining 6h post stimulation at the presence of UA or DMSO (n=4). […] Quantification of TCF1^hi cells among CD8. (FIG. 4N) Quantification of PD1^hi cells among CD8. (FIG. 4O) Quantification of and Tim3^hi cells among CD8. […]
(Quantitative PCR measures a nucleic acid by following its amplification.)

Experiment [2] has as its system Th1/Th17 cell infiltration. To be noted: in vivo; cited from earlier work.

Consider `O=c1oc2cc(O)ccc2c2ccc(O)cc12` [Urolithin A], for which, in experiment [1] (24 h after activation), the “autophagy genes and Pink1 (qPCR)” value was “significant upregulation”. In addition, in experiment [1] (24 h after stimulation), the “transcription of Wnt target genes (qPCR)” value is on record as “increased transcription”. The Th1/Th17 cell infiltration result in experiment [2] is “blocking Th1/Th17 cell infiltration”.
